Patent US20220169598A1, “HALOGENATED PHENYLSULFONAMIDE HYDROXAMIC ACID COMPOUNDS, COMPOSITIONS AND USES THEREOF AS SELECTIVE HDAC6 INHIBITORS” (2681603 ONTARIO INC., priority 2019, published 2022)
Read-outs that look alike come from different tables or passages of the source. Values belong to the molecule of their own block, whether it stands above or below them.

Legend:
[1] = test system: K562; test: Cytotoxicity in cell lines; format: cell-based; settings: Homo sapiens
Method: (§1) The cytotoxicity of exemplary compounds of the application was tested in multiple cell lines including MV-4-11, MOLM-13, MCF-7, MRC9, K562 and MM.1S. The therapeutic index was evaluated by determining the toxicity of the exemplary compounds in healthy cell lines including fibroblasts and HUVEC.

[2] = test system: MV-4-11; test: Cytotoxicity in cell lines; format: cell-based
Method: as §1

[3] = test system: MOLM-13; test: Cytotoxicity in cell lines; format: cell-based; settings: Homo sapiens
Method: as §1

[4] = test system: Normal Human Fibroblast; test: Toxicity in healthy cell lines; format: cell-based; settings: read-out: IC50 Normal Human Fibroblast
Method: as §1

[5] = test system: HUVEC; test: Toxicity in healthy cell lines; format: cell-based; settings: Homo sapiens, read-out: IC50 HUVEC
Method: as §1

[6] = Kinetic solubility by analytical HPLC; format: physicochemical; settings: PBS with 5% (v/v) DMSO, aqueous with cosolvent or surfactant or cyclodextrin, kinetic from dmso stock; PBS + 5% DMSO; initial concentration 300 μM; read-out: Saturation Concentration
Method: The initial concentration of each exemplary compound was 300 μM.

[7] = test system: MM.1S; test: Cytotoxicity in cell lines; format: cell-based; settings: Homo sapiens, MM1.S; Table 4
Method: as §1

[8] = test system: MRC9; test: Cytotoxicity in cell lines; format: cell-based; settings: Table 5
Method: as §1

[9] = target: T1, HDAC6 (Homo sapiens, UniProt Q9UBN7); test: in vitro activity-based HDAC assay; format: biochemical; settings: ranges given; read-out: IC50 for HDAC6
T1 sequence (Q9UBN7 1-1215): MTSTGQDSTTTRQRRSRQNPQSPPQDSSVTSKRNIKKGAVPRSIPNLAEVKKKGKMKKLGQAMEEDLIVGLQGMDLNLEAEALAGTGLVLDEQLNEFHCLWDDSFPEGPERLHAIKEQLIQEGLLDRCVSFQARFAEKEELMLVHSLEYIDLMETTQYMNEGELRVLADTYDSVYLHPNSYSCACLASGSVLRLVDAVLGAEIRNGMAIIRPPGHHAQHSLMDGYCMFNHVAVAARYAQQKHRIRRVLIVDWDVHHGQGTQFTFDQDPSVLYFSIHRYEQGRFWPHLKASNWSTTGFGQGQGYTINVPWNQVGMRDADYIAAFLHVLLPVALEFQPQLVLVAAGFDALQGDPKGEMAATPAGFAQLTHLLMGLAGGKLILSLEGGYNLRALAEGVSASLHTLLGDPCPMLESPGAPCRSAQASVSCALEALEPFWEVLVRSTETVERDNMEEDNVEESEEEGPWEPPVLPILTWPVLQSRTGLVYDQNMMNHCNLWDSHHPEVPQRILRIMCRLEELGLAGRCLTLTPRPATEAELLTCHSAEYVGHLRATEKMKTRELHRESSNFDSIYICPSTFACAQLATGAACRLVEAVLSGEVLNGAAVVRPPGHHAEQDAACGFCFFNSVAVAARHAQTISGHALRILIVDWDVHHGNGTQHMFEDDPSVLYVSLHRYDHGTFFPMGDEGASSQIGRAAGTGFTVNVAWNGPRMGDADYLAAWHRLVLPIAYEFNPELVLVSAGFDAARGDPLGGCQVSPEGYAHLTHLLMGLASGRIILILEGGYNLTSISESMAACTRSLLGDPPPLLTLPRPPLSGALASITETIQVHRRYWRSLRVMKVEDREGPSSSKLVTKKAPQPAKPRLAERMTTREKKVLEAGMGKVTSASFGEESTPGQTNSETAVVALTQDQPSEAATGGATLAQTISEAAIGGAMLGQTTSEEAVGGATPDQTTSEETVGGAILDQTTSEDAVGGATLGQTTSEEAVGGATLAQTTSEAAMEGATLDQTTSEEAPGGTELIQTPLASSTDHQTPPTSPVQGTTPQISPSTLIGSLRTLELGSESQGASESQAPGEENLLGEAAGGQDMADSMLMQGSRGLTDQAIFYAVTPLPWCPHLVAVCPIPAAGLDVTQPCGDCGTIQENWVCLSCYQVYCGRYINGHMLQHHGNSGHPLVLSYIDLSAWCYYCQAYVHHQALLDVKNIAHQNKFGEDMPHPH
Method: The exemplary compounds of Formula I and structurally related compounds were synthesized to assess their structure-activity relationship. […] The IC50 values for each exemplary compound were used to calculate the selectivity of the exemplary compounds for Formula I to HDAC6. The selectivity of each exemplary compound for HDAC6 was determined from examining the potency of HDAC6 in relation to the highest binding affinity of the other HDAC isoforms tested.

[10] = K562, Table 4, read-out: IC50 K562
[11] = Homo sapiens, MV4-11, Table 4, read-out: IC50 MV-411
[12] = MOLM-13, Table 4, read-out: IC50 MOLM-13
[13] = Homo sapiens, MV4-11, Table 5, read-out: IC50 MV-411
[14] = K562, Table 5, read-out: IC50 K562
[15] = MOLM-13, Table 5, read-out: IC50 MOLM-13

SMILES: O=C(NO)c1ccc(CN(Cc2cccnc2F)S(=O)(=O)c2cc(F)c(F)c(F)c2F)cc1 [Compound I-19, N-hydroxy-4-((2,3,4,5-tetrafluoro-N-((2-fluoropyridin-3-yl)methyl)phenylsulfonamido)methyl)benzamide]
IC50 [1, 10]: 5600 nM

SMILES: O=C(NO)c1ccc(CN(CCc2ccccc2F)S(=O)(=O)c2cc(F)c(F)c(F)c2F)cc1 [Compound I-21, N-hydroxy-4-((2,3,4,5-tetrafluoro-N-(2-fluorophenethyl)phenylsulfonamido)methyl)benzamide]
IC50 [2, 11]: 478 nM | IC50 [1, 10]: 7900 nM | IC50 [3, 12]: 1700 nM

SMILES: O=C(NO)c1ccc(CN(Cc2cccnc2F)S(=O)(=O)c2cc(F)c(F)c(F)c2F)c(F)c1 [Compound I-32, 3-fluoro-N-hydroxy-4-((2,3,4,5-tetrafluoro-N-((2-fluoropyridin-3-yl)methyl)phenylsulfonamido)methyl)benzamide]
IC50 ([4]; Table 4, healthy cells): 7100 nM | IC50 ([5]; Table 4, healthy cells): 5100 nM | IC50 [2, 11]: 389 nM | IC50 [1, 10]: 8600 nM | IC50 [3, 12]: 1980 nM

SMILES: O=C(NO)c1ccc(CN(C2CCCC2)S(=O)(=O)c2cc(F)c(F)c(F)c2F)cc1 [Compound I-51, 4-(((N-cyclopentyl-2,3,4,5-tetrafluorophenyl)sulfonamido)methyl)-N-hydroxybenzamide]
IC50 [2, 11]: 2800 nM | IC50 [7]: 2700 nM

SMILES: CC(C)N(Cc1cc(F)c(C(=O)NO)cc1F)S(=O)(=O)c1cc(F)c(F)c(F)c1F [Compound I-52, 2,5-difluoro-N-hydroxy-4-(((2,3,4,5-tetrafluoro-N-isopropylphenyl)sulfonamido)methyl)benzamide]
IC50 [2, 11]: 1000 nM | IC50 [7]: 400 nM

SMILES: CC(C)CN(Cc1ccc(C(=O)NO)cc1)S(=O)(=O)c1cc(F)c(F)c(F)c1F [Compound I-54, N-hydroxy-4-(((2,3,4,5-tetrafluoro-N-isobutylphenyl)sulfonamido)methyl)benzamide]
IC50 [2, 11]: 500 nM | IC50 [7]: 700 nM

SMILES: O=C(/C=C/c1ccc(CN(C2CC2)S(=O)(=O)c2c(F)c(F)c(F)c(F)c2F)cc1)NO [Compound I-56]
IC50 [8]: > 50000 nM

SMILES: O=C(/C=C/c1ccc(CN(C2CCCC2)S(=O)(=O)c2c(F)c(F)c(F)c(F)c2F)cc1)NO [Compound I-57, (E)-3-(4-((N-cyclopentyl-2,3,4,5,6-pentafluorophenylsulfonamido)methy)phenyl)-N-hydroxyacrylamide]
IC50 [8]: > 50000 nM | IC50 [9]: 10 to 30 nM

SMILES: COc1cc(/C=C/C(=O)NO)ccc1CN(Cc1cccnc1F)S(=O)(=O)c1cc(F)c(F)c(F)c1F [Compound I-77]
IC50 [2, 13]: 1100 nM | IC50 [1, 14]: 72800 nM | IC50 [3, 15]: 3300 nM

SMILES: O=C(/C=C/c1ccc(CN(Cc2cccnc2F)S(=O)(=O)c2cc(F)c(F)c(F)c2F)c(C(F)(F)F)c1)NO [Compound I-79]
IC50 [2, 13]: 329 nM | IC50 [1, 14]: 25900 nM | IC50 [3, 15]: 7900 nM

SMILES: O=C(/C=C/c1ccc(CN(Cc2cccnc2)S(=O)(=O)c2cc(F)c(F)c(F)c2F)c(C(F)(F)F)c1)NO [Compound I-80]
IC50 [2, 13]: 338 nM | IC50 [1, 14]: 16300 nM | IC50 [3, 15]: 7600 nM

SMILES: O=C(/C=C/c1ccc(CNC(=O)c2c(F)c(F)c(F)c(F)c2F)cc1)NO [Compound I-81, (E)-2,3,4,5,6-pentafluoro-N-(4-(3-(hydroxyamino)-3-oxoprop-1-en-1-yl)benzyl)benzamide]
IC50 [9]: 10 to 30 nM

SMILES: O=C(/C=C/c1ccc(CNC(=O)c2cc(F)c(F)c(F)c2F)cc1)NO [Compound I-82, (E)-2,3,4,5-tetrafluoro-N-(4-(3-(hydroxyamino)-3-oxoprop-1-en-1-yl)benzyl)benzamide]
IC50 [2, 13]: 590 nM | IC50 [9]: 10 to 30 nM

SMILES: O=C(CCCCCCNC(=O)c1cnc(N(c2ccccc2)c2ccccc2)nc1)NO [Ricolinostat, reference compound]
IC50 [4]: 5700 nM | IC50 [5]: 4900 nM | IC50 ([2]; Homo sapiens, MV4-11, read-out: IC50 MV-411): 656 nM | IC50 ([1]; K562, read-out: IC50 K562): 12800 nM | IC50 ([3]; MOLM-13, read-out: IC50 MOLM-13): 6490 nM | solubility kinetic [6]: 26.1 ± 11.3 µM

Continued, in another order:

solubility kinetic [6]: 46 ± 4.4 µM
SMILES: O=C(NO)c1ccc(CN(Cc2cccnc2)S(=O)(=O)c2cc(F)c(F)c(F)c2F)c(F)c1 [Compound I-30, 3-fluoro-N-hydroxy-4-((2,3,4,5-tetrafluoro-N-(pyridin-3-ylmethyl)phenylsulfonamido)methyl)benzamide]
IC50 ([4]; Table 4, healthy cells): 6100 nM | IC50 ([5]; Table 4, healthy cells): 4100 nM | IC50 [2, 11]: 607 nM | IC50 [1, 10]: 9300 nM | IC50 [3, 12]: 2900 nM

IC50 [9]: 10 to 30 nM
SMILES: O=C(/C=C/c1ccc(CN(Cc2ccc(F)cc2)S(=O)(=O)c2c(F)c(F)c(F)c(F)c2F)cc1)NO [Compound I-59, (E)-N-hydroxy-3-(4-((2,3,4,5,6-pentafluoro-N-(4-fluorobenzyl)phenylsulfonamido)methyl)phenyl)acrylamide]
IC50 [2, 13]: 590 nM

IC50 [9]: 10 to 30 nM
SMILES: CC(c1ccc(F)cc1)N(Cc1ccc(/C=C/C(=O)NO)cc1)S(=O)(=O)c1c(F)c(F)c(F)c(F)c1F (stereo not shown) [Compound I-60, (E)-N-hydroxy-3-(4-((2,3,4,5,6-pentafluoro-N-(1-(4-fluorophenyl)ethyl)phenylsulfonamido)methyl)phenyl)acrylamide]
IC50 [2, 13]: 470 nM

IC50 [9]: 30 to 50 nM
SMILES: COc1ccc(CN(Cc2ccc(/C=C/C(=O)NO)cc2)S(=O)(=O)c2c(F)c(F)c(F)c(F)c2F)cc1 [Compound I-61, (E)-N-hydroxy-3-(4-((2,3,4,5,6-pentafluoro-N-(4-methoxybenzyl)phenylsulfonamido)methyl)phenyl)acrylamide]

IC50 [9]: 150 to 200 nM
SMILES: O=C(/C=C/c1ccc(CN(C2CCCC2)S(=O)(=O)c2cc(F)c(F)c(F)c2F)cc1)NO [Compound I-65, (E)-3-(4-((N-cyclopentyl-2,3,4,5-tetrafluorophenylsulfonamido)methyl)phenyl)-N-hydroxyacrylamide]
IC50 [2, 13]: 2430 nM | IC50 ([2]; Table 5, read-out: IC50 MV-411): 1940 nM

IC50 [9]: 10 to 30 nM
SMILES: O=C(/C=C/c1ccc(CN(c2ccccc2)S(=O)(=O)c2cc(F)c(F)c(F)c2F)cc1)NO [Compound I-66, (E)-N-hydroxy-3-(4-((2,3,4,5-tetrafluoro-N-phenylphenylsulfonamido)methyl)phenyl)acrylamide]
IC50 [2, 13]: 840 nM

IC50 [9]: 100 to 150 nM
SMILES: CC(C)N(Cc1ccc(CC(=O)NO)cc1)S(=O)(=O)c1cc(F)c(F)c(F)c1F [Compound I-70, N-hydroxy-2-(4-((2,3,4,5-tetrafluoro-N-isopropylphenylsulfonamido)methyl)phenyl)acetamide]
IC50 [2, 13]: 2500 nM

IC50 [9]: 100 to 150 nM
SMILES: O=C(Cc1ccc(CN(C2CC2)S(=O)(=O)c2cc(F)c(F)c(F)c2F)cc1)NO [Compound I-71, 2-(4-((N-cyclopropyl-2,3,4,5-tetrafluorophenylsulfonamido)methyl)phenyl)-N-hydroxyacetamide]
